In patent publication US4464385A, “Treatment of diabetic complications with hydantoins” (Alcon Laboratories, Inc., priority 1982, dated 1984):

Tested on: cataracts in rats
Assay: Prevention or retardation of cataracts in galactose-fed rats
Type: in vivo, rat
Settings: 30% galactose diet, A,C,E 0.0025%, B,D 0.01%
Experimental: The compounds to be tested were:
Test compound/diet mixtures were formulated as follows: […]
Similarly, the 0.01% level was designed to provide a drug concentration of 20 mg per kilogram per day.
All animals were fed the Purina Laboratory Chow and water, ad libitum for a two day acclimatization period. The indicated test compound/diet mixture then was introduced to all animals on Study Day 1 and the animals were maintained on this diet throughout thirty days of the study.
Sufficient amounts of test compound/diet mixture were maintained in the food hoppers to allow the animals to eat ad libitum. All aliquots of test compound/diet mixture added to the food hoopers were weighed and the weights, as well as day of addition, recorded.
Twelve animals were assigned to each treatment with each compound at the indicated percentage by total weight of feed. All eyes were examined with a handheld ophthalmoscope and/or penlight.

CSc1ccc2c(c1)C1(CCO2)NC(=O)NC1=O (stereo not drawn) [A]
% of Total Eyes, + (vacuole) (Study Day 2): 0%
% of Total Eyes, - (Normal) (Study Day 2): 100.0%
% of Total Eyes, N (nuclear cataract) (Study Day 2): 0%
% of Total Eyes, S (snowflake) (Study Day 2): 0%
Number of Eyes Observed, + (vacuole) (Study Day 2): 0 eyes
Number of Eyes Observed, - (Normal) (Study Day 2): 24 eyes
Number of Eyes Observed, N (nuclear cataract) (Study Day 2): 0 eyes
Number of Eyes Observed, S (snowflake) (Study Day 2): 0 eyes
Number of Eyes Observed, ± (Study Day 2): 0 eyes
% of Total Eyes, + (vacuole) (Study Day 3): 0%
% of Total Eyes, - (Normal) (Study Day 3): 100.0%
% of Total Eyes, N (nuclear cataract) (Study Day 3): 0%
% of Total Eyes, S (snowflake) (Study Day 3): 0%
Number of Eyes Observed, + (vacuole) (Study Day 3): 0 eyes
Number of Eyes Observed, - (Normal) (Study Day 3): 24 eyes
Number of Eyes Observed, N (nuclear cataract) (Study Day 3): 0 eyes
Number of Eyes Observed, S (snowflake) (Study Day 3): 0 eyes
Number of Eyes Observed, ± (Study Day 3): 0 eyes
% of Total Eyes, + (vacuole) (Study Day 4): 0%
% of Total Eyes, - (Normal) (Study Day 4): 79.2%
% of Total Eyes, N (nuclear cataract) (Study Day 4): 0%
% of Total Eyes, S (snowflake) (Study Day 4): 0%
Number of Eyes Observed, + (vacuole) (Study Day 4): 0 eyes
Number of Eyes Observed, - (Normal) (Study Day 4): 19 eyes
Number of Eyes Observed, N (nuclear cataract) (Study Day 4): 0 eyes
Number of Eyes Observed, S (snowflake) (Study Day 4): 0 eyes
Number of Eyes Observed, ± (Study Day 4): 5 eyes
% of Total Eyes, + (vacuole) (Study Day 5): 16.7%
% of Total Eyes, - (Normal) (Study Day 5): 8.3%
% of Total Eyes, N (nuclear cataract) (Study Day 5): 0%
% of Total Eyes, S (snowflake) (Study Day 5): 0%
Number of Eyes Observed, + (vacuole) (Study Day 5): 4 eyes
Number of Eyes Observed, - (Normal) (Study Day 5): 2 eyes
Number of Eyes Observed, N (nuclear cataract) (Study Day 5): 0 eyes
Number of Eyes Observed, S (snowflake) (Study Day 5): 0 eyes
Number of Eyes Observed, ± (Study Day 5): 18 eyes
% of Total Eyes, + (vacuole) (Study Day 6): 58.4%
% of Total Eyes, - (Normal) (Study Day 6): 8.3%
% of Total Eyes, N (nuclear cataract) (Study Day 6): 0%
% of Total Eyes, S (snowflake) (Study Day 6): 0%
Number of Eyes Observed, + (vacuole) (Study Day 6): 14 eyes
Number of Eyes Observed, - (Normal) (Study Day 6): 2 eyes
Number of Eyes Observed, N (nuclear cataract) (Study Day 6): 0 eyes
Number of Eyes Observed, S (snowflake) (Study Day 6): 0 eyes
Number of Eyes Observed, ± (Study Day 6): 8 eyes
% of Total Eyes, + (vacuole) (Study Day 8): 66.7%
% of Total Eyes, - (Normal) (Study Day 8): 8.3%
% of Total Eyes, N (nuclear cataract) (Study Day 8): 0%
% of Total Eyes, S (snowflake) (Study Day 8): 0%
Number of Eyes Observed, + (vacuole) (Study Day 8): 16 eyes
Number of Eyes Observed, - (Normal) (Study Day 8): 2 eyes
Number of Eyes Observed, N (nuclear cataract) (Study Day 8): 0 eyes
Number of Eyes Observed, S (snowflake) (Study Day 8): 0 eyes
Number of Eyes Observed, ± (Study Day 8): 6 eyes
% of Total Eyes, + (vacuole) (Study Day 10): 62.5%
% of Total Eyes, - (Normal) (Study Day 10): 8.3%
% of Total Eyes, N (nuclear cataract) (Study Day 10): 0%
% of Total Eyes, S (snowflake) (Study Day 10): 12.5%
Number of Eyes Observed, + (vacuole) (Study Day 10): 15 eyes
Number of Eyes Observed, - (Normal) (Study Day 10): 2 eyes
Number of Eyes Observed, N (nuclear cataract) (Study Day 10): 0 eyes
Number of Eyes Observed, S (snowflake) (Study Day 10): 3 eyes
Number of Eyes Observed, ± (Study Day 10): 4 eyes
% of Total Eyes, + (vacuole) (Study Day 12): 70.8%
% of Total Eyes, - (Normal) (Study Day 12): 0%
% of Total Eyes, N (nuclear cataract) (Study Day 12): 0%
% of Total Eyes, S (snowflake) (Study Day 12): 16.7%
Number of Eyes Observed, + (vacuole) (Study Day 12): 17 eyes
Number of Eyes Observed, - (Normal) (Study Day 12): 0 eyes
Number of Eyes Observed, N (nuclear cataract) (Study Day 12): 0 eyes
Number of Eyes Observed, S (snowflake) (Study Day 12): 4 eyes
Number of Eyes Observed, ± (Study Day 12): 3 eyes
% of Total Eyes, + (vacuole) (Study Day 14): 66.7%
% of Total Eyes, - (Normal) (Study Day 14): 0%
% of Total Eyes, N (nuclear cataract) (Study Day 14): 0%
% of Total Eyes, S (snowflake) (Study Day 14): 29.2%
Number of Eyes Observed, + (vacuole) (Study Day 14): 16 eyes
Number of Eyes Observed, - (Normal) (Study Day 14): 0 eyes
Number of Eyes Observed, N (nuclear cataract) (Study Day 14): 0 eyes
Number of Eyes Observed, S (snowflake) (Study Day 14): 7 eyes
Number of Eyes Observed, ± (Study Day 14): 1 eyes
% of Total Eyes, + (vacuole) (Study Day 16): 50.0%
% of Total Eyes, - (Normal) (Study Day 16): 0%
% of Total Eyes, N (nuclear cataract) (Study Day 16): 0%
% of Total Eyes, S (snowflake) (Study Day 16): 50.0%
Number of Eyes Observed, + (vacuole) (Study Day 16): 12 eyes
Number of Eyes Observed, - (Normal) (Study Day 16): 0 eyes
Number of Eyes Observed, N (nuclear cataract) (Study Day 16): 0 eyes
Number of Eyes Observed, S (snowflake) (Study Day 16): 12 eyes
Number of Eyes Observed, ± (Study Day 16): 0 eyes
% of Total Eyes, + (vacuole) (Study Day 18): 33.3%
% of Total Eyes, - (Normal) (Study Day 18): 0%
% of Total Eyes, N (nuclear cataract) (Study Day 18): 0%
% of Total Eyes, S (snowflake) (Study Day 18): 66.7%
Number of Eyes Observed, + (vacuole) (Study Day 18): 8 eyes
Number of Eyes Observed, - (Normal) (Study Day 18): 0 eyes
Number of Eyes Observed, N (nuclear cataract) (Study Day 18): 0 eyes
Number of Eyes Observed, S (snowflake) (Study Day 18): 16 eyes
Number of Eyes Observed, ± (Study Day 18): 0 eyes
% of Total Eyes, + (vacuole) (Study Day 20): 25.0%
% of Total Eyes, - (Normal) (Study Day 20): 0%
% of Total Eyes, N (nuclear cataract) (Study Day 20): 0%
% of Total Eyes, S (snowflake) (Study Day 20): 75.0%
Number of Eyes Observed, + (vacuole) (Study Day 20): 6 eyes
Number of Eyes Observed, - (Normal) (Study Day 20): 0 eyes
Number of Eyes Observed, N (nuclear cataract) (Study Day 20): 0 eyes
Number of Eyes Observed, S (snowflake) (Study Day 20): 18 eyes
Number of Eyes Observed, ± (Study Day 20): 0 eyes
% of Total Eyes, + (vacuole) (Study Day 22): 25.0%
% of Total Eyes, - (Normal) (Study Day 22): 0%
% of Total Eyes, N (nuclear cataract) (Study Day 22): 0%
% of Total Eyes, S (snowflake) (Study Day 22): 75.0%
Number of Eyes Observed, + (vacuole) (Study Day 22): 6 eyes
Number of Eyes Observed, - (Normal) (Study Day 22): 0 eyes
Number of Eyes Observed, N (nuclear cataract) (Study Day 22): 0 eyes
Number of Eyes Observed, S (snowflake) (Study Day 22): 18 eyes
Number of Eyes Observed, ± (Study Day 22): 0 eyes
% of Total Eyes, + (vacuole) (Study Day 24): 16.7%
% of Total Eyes, - (Normal) (Study Day 24): 0%
% of Total Eyes, N (nuclear cataract) (Study Day 24): 0%
% of Total Eyes, S (snowflake) (Study Day 24): 83.3%
Number of Eyes Observed, + (vacuole) (Study Day 24): 4 eyes
Number of Eyes Observed, - (Normal) (Study Day 24): 0 eyes
Number of Eyes Observed, N (nuclear cataract) (Study Day 24): 0 eyes
Number of Eyes Observed, S (snowflake) (Study Day 24): 20 eyes
Number of Eyes Observed, ± (Study Day 24): 0 eyes
% of Total Eyes, + (vacuole) (Study Day 26): 8.3%
% of Total Eyes, - (Normal) (Study Day 26): 0%
% of Total Eyes, N (nuclear cataract) (Study Day 26): 0%
% of Total Eyes, S (snowflake) (Study Day 26): 91.7%
Number of Eyes Observed, + (vacuole) (Study Day 26): 2 eyes
Number of Eyes Observed, - (Normal) (Study Day 26): 0 eyes
Number of Eyes Observed, N (nuclear cataract) (Study Day 26): 0 eyes
Number of Eyes Observed, S (snowflake) (Study Day 26): 22 eyes
Number of Eyes Observed, ± (Study Day 26): 0 eyes
% of Total Eyes, + (vacuole) (Study Day 28): 8.3%
% of Total Eyes, - (Normal) (Study Day 28): 0%
% of Total Eyes, N (nuclear cataract) (Study Day 28): 8.3%
% of Total Eyes, S (snowflake) (Study Day 28): 83.3%
Number of Eyes Observed, + (vacuole) (Study Day 28): 2 eyes
Number of Eyes Observed, - (Normal) (Study Day 28): 0 eyes
Number of Eyes Observed, N (nuclear cataract) (Study Day 28): 2 eyes
Number of Eyes Observed, S (snowflake) (Study Day 28): 20 eyes
Number of Eyes Observed, ± (Study Day 28): 0 eyes
% of Total Eyes, + (vacuole) (Study Day 30): 4.2%
% of Total Eyes, - (Normal) (Study Day 30): 0%
% of Total Eyes, N (nuclear cataract) (Study Day 30): 12.5%
% of Total Eyes, S (snowflake) (Study Day 30): 83.3%
Number of Eyes Observed, + (vacuole) (Study Day 30): 1 eyes
Number of Eyes Observed, - (Normal) (Study Day 30): 0 eyes
Number of Eyes Observed, N (nuclear cataract) (Study Day 30): 3 eyes
Number of Eyes Observed, S (snowflake) (Study Day 30): 20 eyes
Number of Eyes Observed, ± (Study Day 30): 0 eyes
